# Measurements published in the supplement of paper PMC5908809.
# Columns and labels:
# [1] = tested on: normal NK cells expanded with K562-aAPC; assay: percent inhibition of viability; higher = more inhibition; settings: 72 h, IL-2 2.5 ng/mL
# Procedure: (§1)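 Drug sensitivity and resistance testing on K562-aAPC-expanded normal NK cells: 5 concentrations (10-fold steps over a 10,000-fold range), 72 h at 37 °C, viability by CellTiter-Glo normalised to DMSO and benzethonium chloride controls; DSS from the fitted curve.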
# [2] = tested on: normal NK cells expanded with K562-aAPC; assay: drug sensitivity score (DSS) (DSS units); higher = more sensitive; extreme values may be limits of the assay; settings: 72 h; IL-2 2.5 ng/mL
# Procedure: as §1
# [3] = tested on: normal primary NK cells, pool 1 (3 donors), resting (IL-2 0 ng/mL); assay: as above; settings: 72 h
# NK-92 (IL-2 2.5 ng/mL) [4] = assay: as above; settings: 72 h
# [5] = tested on: normal primary NK cells, pool 1 (3 donors) (IL-2 2.5 ng/mL); assay: as above; settings: 72 h
# NKL (IL-2 2.5 ng/mL) [6] = assay: as above; settings: 72 h
# [7] = tested on: normal primary NK cells, pool 3 (3 donors) (IL-2 2.5 ng/mL); assay: as above; settings: 72 h
# [8] = tested on: normal primary NK cells, pool 2 (3 donors) (IL-2 2.5 ng/mL); assay: as above; settings: 72 h
# KHYG-1 (IL-2 2.5 ng/mL) [9] = assay: as above; settings: 72 h
# IMC-1 (IL-2 20 ng/mL) [10] = assay: as above; settings: 72 h
# NK-YS (IL-2 2.5 ng/mL) [11] = assay: as above; settings: 72 h
# DERL-7 (IL-2 2.5 ng/mL) [12] = assay: as above; settings: 72 h
# KAI3 (IL-2 2.5 ng/mL) [13] = assay: as above; settings: 72 h
# SNK-6 (IL-2 2.5 ng/mL) [14] = assay: as above; settings: 72 h
# YT (IL-2 2.5 ng/mL) [15] = assay: as above; settings: 72 h
# [16] = tested on: normal primary NK cells, pool 1 (3 donors), resting (IL-2 0 ng/mL); assay: percent inhibition of viability; higher = more inhibition; settings: 72 h
# NK-92 (IL-2 2.5 ng/mL) [17] = assay: as above; settings: 72 h
# [18] = tested on: normal primary NK cells, pool 1 (3 donors) (IL-2 2.5 ng/mL); assay: as above; settings: 72 h
# NKL (IL-2 2.5 ng/mL) [19] = assay: as above; settings: 72 h
# [20] = tested on: normal primary NK cells, pool 3 (3 donors) (IL-2 2.5 ng/mL); assay: as above; settings: 72 h
# [21] = tested on: normal primary NK cells, pool 2 (3 donors) (IL-2 2.5 ng/mL); assay: as above; settings: 72 h
# KHYG-1 (IL-2 2.5 ng/mL) [22] = assay: as above; settings: 72 h
# IMC-1 (IL-2 20 ng/mL) [23] = assay: as above; settings: 72 h
# NK-YS (IL-2 2.5 ng/mL) [24] = assay: as above; settings: 72 h
# DERL-7 (IL-2 2.5 ng/mL) [25] = assay: as above; settings: 72 h
# KAI3 (IL-2 2.5 ng/mL) [26] = assay: as above; settings: 72 h
# SNK-6 (IL-2 2.5 ng/mL) [27] = assay: as above; settings: 72 h
# YT (IL-2 2.5 ng/mL) [28] = assay: as above; settings: 72 h
structure (smiles),measurement,setting,value
C[C@@H]1COC(Nc2ccc3ncnc(Nc4ccc(OCc5nccs5)c(Cl)c4)c3c2)=N1 [Varlitinib] (max concentration tested 10000 nM),percent inhibition of viability,[1]; 1 nM,-1.48%
same,percent inhibition of viability,[1]; 10 nM,1.48%
same,percent inhibition of viability,[1]; 100 nM,0.78%
same,percent inhibition of viability,[1]; 1000 nM,6.23%
same,percent inhibition of viability,[1]; 10000 nM,6.06%
same,drug sensitivity score,[2],0
same,drug sensitivity score,[3],0
same,drug sensitivity score,NK-92 (IL-2 2.5 ng/mL) [4],2.45
same,drug sensitivity score,[5],0
same,drug sensitivity score,NKL (IL-2 2.5 ng/mL) [6],1.5
same,drug sensitivity score,[7],0
same,drug sensitivity score,[8],0
same,drug sensitivity score,KHYG-1 (IL-2 2.5 ng/mL) [9],1.18
same,drug sensitivity score,IMC-1 (IL-2 20 ng/mL) [10],2.92
same,drug sensitivity score,NK-YS (IL-2 2.5 ng/mL) [11],0.1
same,drug sensitivity score,DERL-7 (IL-2 2.5 ng/mL) [12],0
same,drug sensitivity score,KAI3 (IL-2 2.5 ng/mL) [13],0
same,drug sensitivity score,SNK-6 (IL-2 2.5 ng/mL) [14],8.77
same,drug sensitivity score,YT (IL-2 2.5 ng/mL) [15],0.09
same,percent inhibition of viability,[16]; 1 nM,-8.46%
same,percent inhibition of viability,[16]; 10 nM,-19.4%
same,percent inhibition of viability,[16]; 100 nM,-14.8%
same,percent inhibition of viability,[16]; 1000 nM,-23.5%
same,percent inhibition of viability,[16]; 10000 nM,-3.47%
same,percent inhibition of viability,NK-92 (IL-2 2.5 ng/mL) [17]; 1 nM,-5.14%
same,percent inhibition of viability,NK-92 (IL-2 2.5 ng/mL) [17]; 10 nM,-6.85%
same,percent inhibition of viability,NK-92 (IL-2 2.5 ng/mL) [17]; 100 nM,0.79%
same,percent inhibition of viability,NK-92 (IL-2 2.5 ng/mL) [17]; 1000 nM,4.69%
same,percent inhibition of viability,NK-92 (IL-2 2.5 ng/mL) [17]; 10000 nM,35.3%
same,percent inhibition of viability,[18]; 1 nM,-1.41%
same,percent inhibition of viability,[18]; 10 nM,-12.3%
same,percent inhibition of viability,[18]; 100 nM,1.76%
same,percent inhibition of viability,[18]; 1000 nM,-7.07%
same,percent inhibition of viability,[18]; 10000 nM,4.85%
same,percent inhibition of viability,NKL (IL-2 2.5 ng/mL) [19]; 1 nM,1.14%
same,percent inhibition of viability,NKL (IL-2 2.5 ng/mL) [19]; 10 nM,7.53%
same,percent inhibition of viability,NKL (IL-2 2.5 ng/mL) [19]; 100 nM,8.83%
same,percent inhibition of viability,NKL (IL-2 2.5 ng/mL) [19]; 1000 nM,12.6%
same,percent inhibition of viability,NKL (IL-2 2.5 ng/mL) [19]; 10000 nM,17.6%
same,percent inhibition of viability,[20]; 1 nM,-15.9%
same,percent inhibition of viability,[20]; 10 nM,-6.58%
same,percent inhibition of viability,[20]; 100 nM,-0.23%
same,percent inhibition of viability,[20]; 1000 nM,-16.5%
same,percent inhibition of viability,[20]; 10000 nM,3.13%
same,percent inhibition of viability,[21]; 1 nM,-7.11%
same,percent inhibition of viability,[21]; 10 nM,-4.04%
same,percent inhibition of viability,[21]; 100 nM,6.91%
same,percent inhibition of viability,[21]; 1000 nM,1.02%
same,percent inhibition of viability,[21]; 10000 nM,9.32%
same,percent inhibition of viability,KHYG-1 (IL-2 2.5 ng/mL) [22]; 1 nM,0.82%
same,percent inhibition of viability,KHYG-1 (IL-2 2.5 ng/mL) [22]; 10 nM,-0.44%
same,percent inhibition of viability,KHYG-1 (IL-2 2.5 ng/mL) [22]; 100 nM,4.79%
same,percent inhibition of viability,KHYG-1 (IL-2 2.5 ng/mL) [22]; 1000 nM,10.6%
same,percent inhibition of viability,KHYG-1 (IL-2 2.5 ng/mL) [22]; 10000 nM,19.4%
same,percent inhibition of viability,IMC-1 (IL-2 20 ng/mL) [23]; 1 nM,-2.91%
same,percent inhibition of viability,IMC-1 (IL-2 20 ng/mL) [23]; 10 nM,6.3%
same,percent inhibition of viability,IMC-1 (IL-2 20 ng/mL) [23]; 100 nM,4.06%
same,percent inhibition of viability,IMC-1 (IL-2 20 ng/mL) [23]; 1000 nM,14.6%
same,percent inhibition of viability,IMC-1 (IL-2 20 ng/mL) [23]; 10000 nM,34%
same,percent inhibition of viability,NK-YS (IL-2 2.5 ng/mL) [24]; 1 nM,2.18%
same,percent inhibition of viability,NK-YS (IL-2 2.5 ng/mL) [24]; 10 nM,-3.81%
same,percent inhibition of viability,NK-YS (IL-2 2.5 ng/mL) [24]; 100 nM,2.34%
same,percent inhibition of viability,NK-YS (IL-2 2.5 ng/mL) [24]; 1000 nM,4.33%
same,percent inhibition of viability,NK-YS (IL-2 2.5 ng/mL) [24]; 10000 nM,12.3%
same,percent inhibition of viability,DERL-7 (IL-2 2.5 ng/mL) [25]; 1 nM,1.37%
same,percent inhibition of viability,DERL-7 (IL-2 2.5 ng/mL) [25]; 10 nM,-3.89%
same,percent inhibition of viability,DERL-7 (IL-2 2.5 ng/mL) [25]; 100 nM,-4.97%
same,percent inhibition of viability,DERL-7 (IL-2 2.5 ng/mL) [25]; 1000 nM,-5.43%
same,percent inhibition of viability,DERL-7 (IL-2 2.5 ng/mL) [25]; 10000 nM,-2.66%
same,percent inhibition of viability,KAI3 (IL-2 2.5 ng/mL) [26]; 1 nM,0.52%
same,percent inhibition of viability,KAI3 (IL-2 2.5 ng/mL) [26]; 10 nM,0.69%
same,percent inhibition of viability,KAI3 (IL-2 2.5 ng/mL) [26]; 100 nM,-2.99%
same,percent inhibition of viability,KAI3 (IL-2 2.5 ng/mL) [26]; 1000 nM,5.18%
same,percent inhibition of viability,KAI3 (IL-2 2.5 ng/mL) [26]; 10000 nM,9.75%
same,percent inhibition of viability,SNK-6 (IL-2 2.5 ng/mL) [27]; 1 nM,7.32%
same,percent inhibition of viability,SNK-6 (IL-2 2.5 ng/mL) [27]; 10 nM,23.1%
same,percent inhibition of viability,SNK-6 (IL-2 2.5 ng/mL) [27]; 100 nM,18.9%
same,percent inhibition of viability,SNK-6 (IL-2 2.5 ng/mL) [27]; 1000 nM,25.6%
same,percent inhibition of viability,SNK-6 (IL-2 2.5 ng/mL) [27]; 10000 nM,29.6%
same,percent inhibition of viability,YT (IL-2 2.5 ng/mL) [28]; 1 nM,3.61%
same,percent inhibition of viability,YT (IL-2 2.5 ng/mL) [28]; 10 nM,0.68%
same,percent inhibition of viability,YT (IL-2 2.5 ng/mL) [28]; 100 nM,4.78%
same,percent inhibition of viability,YT (IL-2 2.5 ng/mL) [28]; 1000 nM,8.48%
same,percent inhibition of viability,YT (IL-2 2.5 ng/mL) [28]; 10000 nM,12.2%
